One experiment concerns the target ROCK1 (Homo sapiens (Human), UniProt Q13464). Briefly: ROCK assay (Caliper LABCHIP peptide phosphorylation), ROCK1.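 Note: Read-out is separation of phosphorylated from unphosphorylated peptide, with kinase activity inhibition computed at every concentration of a dose-response series.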 The class given is biochemical. The settings on record: 5 μM ATP, 1.5 μM peptide substrate.
Another experiment deals with ROCK2 (Homo sapiens (Human), UniProt O75116). Briefly: ROCK assay (Caliper LABCHIP peptide phosphorylation), ROCK2.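 Note: reaction stopped with EDTA, then phosphorylated and unphosphorylated peptide resolved by microfluidic electrophoresis, kinase inhibition computed at each compound concentration in dose-response series, DMSO under 2%.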 In kind it is biochemical. To be noted: 5 μM ATP, 1.5 μM peptide substrate.
Chain of ROCK2 (O75116 whole entry, species assumed): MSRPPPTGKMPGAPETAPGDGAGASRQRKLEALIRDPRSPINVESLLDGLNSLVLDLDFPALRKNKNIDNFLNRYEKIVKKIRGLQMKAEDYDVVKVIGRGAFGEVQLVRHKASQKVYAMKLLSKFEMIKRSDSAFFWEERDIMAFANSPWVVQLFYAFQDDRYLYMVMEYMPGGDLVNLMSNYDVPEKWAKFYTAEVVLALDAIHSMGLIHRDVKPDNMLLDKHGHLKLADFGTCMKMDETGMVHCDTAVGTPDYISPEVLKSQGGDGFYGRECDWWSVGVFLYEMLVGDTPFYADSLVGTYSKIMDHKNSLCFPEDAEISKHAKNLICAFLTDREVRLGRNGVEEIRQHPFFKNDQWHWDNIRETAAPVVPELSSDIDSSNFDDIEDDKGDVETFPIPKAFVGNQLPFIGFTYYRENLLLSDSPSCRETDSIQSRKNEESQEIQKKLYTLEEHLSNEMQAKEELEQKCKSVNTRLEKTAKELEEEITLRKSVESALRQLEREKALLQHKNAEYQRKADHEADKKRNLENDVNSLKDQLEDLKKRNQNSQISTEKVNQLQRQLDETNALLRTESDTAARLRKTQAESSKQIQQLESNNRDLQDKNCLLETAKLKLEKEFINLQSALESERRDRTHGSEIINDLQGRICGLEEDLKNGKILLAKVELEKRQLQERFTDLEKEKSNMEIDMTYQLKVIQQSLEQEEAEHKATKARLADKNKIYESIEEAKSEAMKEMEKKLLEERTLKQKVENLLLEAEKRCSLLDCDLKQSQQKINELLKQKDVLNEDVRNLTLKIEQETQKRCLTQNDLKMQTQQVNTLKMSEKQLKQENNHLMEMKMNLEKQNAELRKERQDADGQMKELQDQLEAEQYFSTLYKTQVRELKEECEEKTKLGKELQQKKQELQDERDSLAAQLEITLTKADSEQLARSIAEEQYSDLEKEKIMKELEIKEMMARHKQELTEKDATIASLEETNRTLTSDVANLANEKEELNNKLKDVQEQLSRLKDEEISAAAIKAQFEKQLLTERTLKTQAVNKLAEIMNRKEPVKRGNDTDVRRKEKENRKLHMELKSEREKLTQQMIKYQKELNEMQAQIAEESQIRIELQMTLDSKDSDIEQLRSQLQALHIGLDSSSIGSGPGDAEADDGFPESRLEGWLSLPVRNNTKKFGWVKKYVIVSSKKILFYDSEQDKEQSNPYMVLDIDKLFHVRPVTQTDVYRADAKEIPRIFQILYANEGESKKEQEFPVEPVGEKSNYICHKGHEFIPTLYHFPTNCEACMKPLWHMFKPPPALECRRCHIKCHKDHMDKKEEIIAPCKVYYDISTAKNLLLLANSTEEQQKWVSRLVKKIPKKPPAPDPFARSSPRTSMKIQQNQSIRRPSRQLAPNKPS

Chain of ROCK1 (Q13464 whole entry, species assumed): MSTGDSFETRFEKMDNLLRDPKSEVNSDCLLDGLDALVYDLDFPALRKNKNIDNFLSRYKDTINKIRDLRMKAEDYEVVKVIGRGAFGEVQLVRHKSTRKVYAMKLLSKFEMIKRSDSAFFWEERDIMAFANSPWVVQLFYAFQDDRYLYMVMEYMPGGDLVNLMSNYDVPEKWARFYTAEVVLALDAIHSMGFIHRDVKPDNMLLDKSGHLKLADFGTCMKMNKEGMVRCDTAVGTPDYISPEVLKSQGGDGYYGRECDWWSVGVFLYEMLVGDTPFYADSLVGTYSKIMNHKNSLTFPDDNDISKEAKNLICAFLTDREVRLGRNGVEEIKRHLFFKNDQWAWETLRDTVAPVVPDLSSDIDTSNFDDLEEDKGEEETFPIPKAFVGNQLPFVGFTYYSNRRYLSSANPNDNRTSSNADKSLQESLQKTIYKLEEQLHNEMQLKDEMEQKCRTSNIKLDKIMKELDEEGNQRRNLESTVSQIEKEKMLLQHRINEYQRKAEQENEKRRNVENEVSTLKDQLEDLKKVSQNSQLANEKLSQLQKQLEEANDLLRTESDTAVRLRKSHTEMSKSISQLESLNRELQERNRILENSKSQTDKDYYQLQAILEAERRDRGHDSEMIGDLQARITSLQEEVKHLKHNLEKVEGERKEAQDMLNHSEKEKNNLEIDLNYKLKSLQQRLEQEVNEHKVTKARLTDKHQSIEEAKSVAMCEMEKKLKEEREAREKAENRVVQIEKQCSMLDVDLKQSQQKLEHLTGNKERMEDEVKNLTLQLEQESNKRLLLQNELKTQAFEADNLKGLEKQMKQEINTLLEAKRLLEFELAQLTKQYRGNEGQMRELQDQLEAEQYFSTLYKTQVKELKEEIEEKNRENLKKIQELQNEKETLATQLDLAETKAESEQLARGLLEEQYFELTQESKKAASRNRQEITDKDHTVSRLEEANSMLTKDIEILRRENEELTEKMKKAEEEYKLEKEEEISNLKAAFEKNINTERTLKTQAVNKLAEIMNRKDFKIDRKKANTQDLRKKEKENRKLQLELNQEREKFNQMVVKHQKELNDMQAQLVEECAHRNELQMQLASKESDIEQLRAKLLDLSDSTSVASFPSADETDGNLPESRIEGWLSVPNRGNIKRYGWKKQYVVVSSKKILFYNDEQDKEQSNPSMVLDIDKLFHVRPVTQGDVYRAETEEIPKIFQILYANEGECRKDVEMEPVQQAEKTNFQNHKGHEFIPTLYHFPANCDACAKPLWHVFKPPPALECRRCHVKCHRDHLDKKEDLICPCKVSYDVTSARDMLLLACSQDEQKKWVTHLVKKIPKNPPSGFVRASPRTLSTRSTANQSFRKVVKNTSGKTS

With `COc1cc(C(=O)NCc2ccccc2OC(F)(F)F)ccc1-c1cn[nH]c1` [Example 22, 3-methoxy-4-(1H-pyrazol-4-yl)-N-(2-(trifluoro-methoxy)benzyl) benzamide], the IC50 against ROCK1 is 85.8 nM; against ROCK2 it was 60.2 nM.
In the case of `COc1cc(C(=O)NCc2ccccc2C)ccc1-c1cn[nH]c1` [Example 23, 3-methoxy-N-(2-methylbenzyl)-4-(1H-pyrazol-4-yl)benzamide], the IC50 on ROCK1 was 7.36 nM; at ROCK2, 2.13 nM.
The corresponding values for `COc1cc(C(=O)NCCc2ccc(F)cc2)ccc1-c1cn[nH]c1` [Example 24, N-(4-fluorophenethyl)-3-methoxy-4-(1H-pyrazol-4-yl)benzamide] are 37.4 nM and 15.6 nM.
The corresponding values for `COc1cc(C(=O)NCc2ccccc2F)ccc1-c1cn[nH]c1` [Example 25, N-(2-fluorobenzyl)-3-methoxy-4-(1H-pyrazol-4-yl)benzamide] are 7.9 nM and 2.65 nM.
The corresponding values for `COc1cc(C(=O)NCc2ccccc2C(F)(F)F)ccc1-c1cn[nH]c1` [Example 26, 3-methoxy-4-(1H-pyrazol-4-yl)-N-(2-(trifluoromethyl)benzyl)benzamide] are 20.4 nM and 20.9 nM.
On to `COc1cc(C(=O)NCc2ccccc2)ccc1-c1cn[nH]c1` [Example 27, N-benzyl-3-methoxy-4-(1H-pyrazol-4-yl) benzamide], for which the figures for the IC50 against ROCK1 and at ROCK2 were 12.8 nM and 2.6 nM, respectively.
For the compound `COc1cc(C(=O)NCc2cccc(OC(F)(F)F)c2)ccc1-c1cn[nH]c1` [Example 28, 3-methoxy-4-(1H-pyrazol-4-yl)-N-(3-(trifluoro-methoxy)benzyl) benzamide], the figures for the IC50 on ROCK1 and against ROCK2 were 1710 nM and 40.9 nM, respectively.
For `COc1cc(C(=O)NCc2cccc(Cl)c2Cl)ccc1-c1cn[nH]c1` [Example 29, N-(2,3-dichlorobenzyl)-3-methoxy-4-(1H-pyrazol-4-yl)benzamide], in that order: 5.77 nM and 2.53 nM.
The corresponding values for `COc1cc(C(=O)NC(C)(C)c2ccccc2)ccc1-c1cn[nH]c1` [Example 30, 3-methoxy-N-(2-phenylpropan-2-yl)-4-(1H-pyrazol-4-yl)benzamide] are 214 nM and 129 nM.
Turning to `COc1cc(C(=O)NCc2ccccc2O)ccc1-c1cn[nH]c1` [Example 31, N-(2-hydroxybenzyl)-3-methoxy-4-(1H-pyrazol-4-yl)benzamide], the IC50 at ROCK1 was 9.2 nM; against ROCK2, 5.62 nM.
Turning to `COc1cc(C(=O)NCc2cccc(C(F)(F)F)c2)ccc1-c1cn[nH]c1` [Example 32, 3-methoxy-4-(1H-pyrazol-4-yl)-N-(3-(trifluoro-methyl)benzyl) benzamide], the IC50 against ROCK1 worked out at 43.3 nM; on ROCK2, 11.5 nM.
The corresponding values for `COc1cc(C(=O)NCCc2ccccc2Cl)ccc1-c1cn[nH]c1` [Example 35, N-(2-chloro-phenethyl)-3-methoxy-4-(1H-pyrazol-4-yl)benzamide] are 16.5 nM and 6.6 nM.
For `COc1cc(C(=O)NCCc2ccccc2)ccc1-c1cn[nH]c1` [Example 36, 3-methoxy-N-phenethyl-4-(1H-pyrazol-4-yl)benzamide], in that order: 28.1 nM and 10.5 nM.
`COc1cc(C(=O)NCc2ccc(Cl)cc2S(=O)(=O)CC(C)C)ccc1-c1cn[nH]c1` [Example 37, N-(4-chloro-2-(isobutyl-sulfonyl)benzyl)-3-methoxy-4-(1H-pyrazol-4-yl)benzamide]: the 50% inhibitory concentration (IC50) against ROCK1 worked out at 2440 nM; on ROCK2, 1410 nM.
`COc1cc(C(=O)NCc2ccc3c(c2)OCO3)ccc1-c1cn[nH]c1` [Example 38, N-(benzo[d] [1,3]dioxol-5-ylmethyl)-3-methoxy-4-(1H-pyrazol-4-yl)benzamide]: the IC50 was determined as 34.8 nM against ROCK1 and 14.2 nM against ROCK2.
On to `COc1cc(C(=O)NCc2ccc(Cl)c(C(F)(F)F)c2)ccc1-c1cn[nH]c1` [Example 39, N-(4-chloro-3-(trifluoromethyl)benzyl)-3-methoxy-4-(1H-pyrazol-4-yl)benzamide], for which the IC50 stood at 107 nM against ROCK1 and 33.3 nM on ROCK2.
For `COc1cc(C(=O)N[C@@H](C)[C@H](O)c2ccccc2)ccc1-c1cn[nH]c1` [Example 40, N-((1R,2S)-1-hydroxy-1-phenylpropan-2-yl)-3-methoxy-4-(1H-pyrazol-4-yl)benzamide], in that order: 337 nM and 224 nM.
The corresponding values for `COc1cc(C(=O)NCc2ccc(F)cc2Cl)ccc1-c1cn[nH]c1` [Example 41, N-(2-chloro-4-fluorobenzyl)-3-methoxy-4-(1H-pyrazol-4-yl)benzamide] are 3.37 nM and 2.54 nM.
The corresponding values for `COc1cc(C(=O)N[C@H](C)[C@@H](O)c2ccccc2)ccc1-c1cn[nH]c1` [Example 42, N-((1S,2R)-1-hydroxy-1-phenylpropan-2-yl)-3-methoxy-4-(1H-pyrazol-4-yl)benzamide] are 26.3 nM and 11 nM.
As for `COc1cc(C(=O)N[C@H](C)c2ccccc2Cl)ccc1-c1cn[nH]c1` [Example 43, (R)-N-(1-(2-chlorophenyl)ethyl)-3-methoxy-4-(1H-pyrazol-4-yl) benzamide], the IC50 against ROCK1 is 40.8 nM; against ROCK2 it was 1.31 nM.
With `COc1cc(C(=O)N[C@@H](C)c2ccccc2Cl)ccc1-c1cn[nH]c1` [Example 44, (S)-N-(1-(2-chlorophenyl)ethyl)-3-methoxy-4-(1H-pyrazol-4-yl)benzamide], the half-inhibitory concentration (IC50) against ROCK1 was found to be 96.1 nM; on ROCK2, 52.5 nM.
As to `COc1cc(C(=O)NCc2ccc(Br)cc2Cl)ccc1-c1cn[nH]c1` [Example 45, N-(4-bromo-2-chlorobenzyl)-3-methoxy-4-(1H-pyrazol-4-yl)benzamide], the results for the IC50 against ROCK1 and against ROCK2 were 16.9 nM and 4.69 nM, respectively.
The corresponding values for `COc1cc(C(=O)NCc2ccc(OCC(C)C)cc2Cl)ccc1-c1cn[nH]c1` [Example 46, N-(2-chloro-4-isobutoxybenzyl)-3-methoxy-4-(1H-pyrazol-4-yl)benzamide] are 1880 nM and 786 nM.
`COc1cc(C(=O)NCc2ccc(Cl)cc2SCC(C)C)ccc1-c1cn[nH]c1` [Example 47, N-(4-chloro-2-(isobutylthio)benzyl)-3-methoxy-4-(1H-pyrazol-4-yl)benzamide]: the values for the half-maximal inhibitory concentration (IC50) at ROCK1 and against ROCK2 were more than 2000 nM and 1320 nM, respectively.
Consider `COc1cc(C(=O)NCc2ccc(Oc3ccccc3)cc2Cl)ccc1-c1cn[nH]c1` [Example 48, N-(2-chloro-4-phenoxybenzyl)-3-methoxy-4-(1H-pyrazol-4-yl)benzamide], for which the IC50 was 663 nM on ROCK1 and 1320 nM on ROCK2.
The corresponding values for `COc1ccc(F)c(CNC(=O)c2ccc(-c3cn[nH]c3)c(OC)c2)c1` [Example 49, N-(2-fluoro-5-methoxybenzyl)-3-methoxy-4-(1H-pyrazol-4-yl)benzamide] are 14.3 nM and 2.47 nM.
As to `COc1cc(C(=O)NCc2ccc(F)c(OC)c2F)ccc1-c1cn[nH]c1` [Example 50, N-(2,4-difluoro-3-methoxybenzyl)-3-methoxy-4-(1H-pyrazol-4-yl)benzamide], the results for the IC50 against ROCK1 and against ROCK2 were 64 nM and 16.7 nM, respectively.
As to `COc1cc(C(=O)NCc2c(F)ccc(OC)c2F)ccc1-c1cn[nH]c1` [Example 51, N-(2,6-difluoro-3-methoxybenzyl)-3-methoxy-4-(1H-pyrazol-4-yl)benzamide], the values for the IC50 against ROCK1 and against ROCK2 were 14.8 nM and 5.35 nM, respectively.
The corresponding values for `COc1cc(C(=O)NCc2cc(F)cc(F)c2)ccc1-c1cn[nH]c1` [Example 52, N-(3,5-difluorobenzyl)-3-methoxy-4-(1H-pyrazol-4-yl)benzamide] are 125 nM and 63.4 nM.
The corresponding values for `COc1cc(-c2cn[nH]c2)ccc1C(=O)NCc1ccccc1Cl` [Example 53, N-(2-Chlorobenzyl)-2-methoxy-4-(1H-pyrazol-4-yl)benzamide] are 11.3 nM and 6.2 nM.
For `COc1cccc(CNC(=O)c2ccc(-c3cn[nH]c3)cc2OC)c1` [Example 54, 2-methoxy-N-(3-methoxybenzyl)-4-(1H-pyrazol-4-yl)benzamide], in that order: 21.3 nM and 4.81 nM.
As to `COc1cccc(CNC(=O)c2ccc(-c3c[nH]nc3C)c(OC)c2)c1` [Example 56, 3-Methoxy-N-(3-methoxybenzyl)-4-(3-methyl-1H-pyrazol-4-yl)benzamide], the IC50 at ROCK1 is 461 nM; at ROCK2, 204 nM.
For `COc1cc(C(=O)NCc2ccccc2Cl)ccc1-c1c[nH]nc1C` [Example 57, N-(2-Chlorobenzyl)-3-methoxy-4-(3-methyl-1H-pyrazol-4-yl)benzamide], in that order: 147 nM and 101 nM.
For `COc1cccc(CNC(=O)c2ccc(-c3cn[nH]c3)c(C)c2)c1` [Example 58, N-(3-Methoxybenzyl)-3-methyl-4-(1H-pyrazol-4-yl)benzamide], in that order: 16.9 nM and 2.28 nM.
On to `COc1cccc(CNC(=O)c2ccc(-c3cn[nH]c3)c(F)c2)c1` [Example 59, 3-Fluoro-N-(3-methoxybenzyl)-4-(1H-pyrazol-4-yl)benzamide], for which the results for the IC50 against ROCK1 and against ROCK2 were 33.3 nM and 18.9 nM, respectively.
With `COc1cccc([C@@H](C)NC(=O)c2ccc(-c3cn[nH]c3)cc2S(C)(=O)=O)c1` [Example 61, (R)-N-(1-(3-Methoxyphenyl)ethyl)-2-(methylsulfonyl)-4-(1H-pyrazol-4-yl)benzamide], the IC50 is more than 2000 nM on ROCK1 and 4590 nM on ROCK2.
In the case of `COc1cccc([C@@H](C)NC(=O)c2ccc(-c3cn[nH]c3)cc2F)c1` [Example 62, (R)-2-Fluoro-N-(1-(3-methoxyphenyl)ethyl)-4-(1H-pyrazol-4-yl)benzamide], the IC50 against ROCK1 turned out to be 43.3 nM; at ROCK2, 8.87 nM.
For the compound `CN(C)CCOc1cc(C(=O)NCc2ccccc2Cl)ccc1-c1cn[nH]c1` [Example 63, N-(2-Chlorobenzyl)-3-(2-(dimethylamino)ethoxy)-4-(1H-pyrazol-4-yl)benzamide], the figures for the IC50 against ROCK1 and at ROCK2 were 1580 nM and 844 nM, respectively.

A word on the IC50: it is the concentration at which inhibition is half-maximal. Read a low IC50 as greater potency.

These data come from patent publication US9458110B2, “Phenylpyrazole derivatives as potent ROCK1 and ROCK2 inhibitors” (BRISTOL-MYERS SQUIBB COMPANY, priority 2013, dated 2016).
